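Five concentrations, 48 hours, 96-well plates. GI50: concentration for 50% inhibition of growth. The concentration for full growth arrest is given as TGI.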
How the values were obtained:
Assay in all cases: DTP human tumour cell line panel, 48 h; in the data active means GI50 below about 0.43 µM; inactive means the rest
HT29 colon = system: HT29 colon
HCT-116 colon = system: HCT-116 colon
CAKI-1 renal = system: CAKI-1 renal
SK-MEL-28 melanoma = system: SK-MEL-28 melanoma
MOLT-4 leukemia = system: MOLT-4 leukemia
UACC-62 melanoma = system: UACC-62 melanoma
NCI-H460 lung = system: NCI-H460 lung
K-562 leukemia = system: K-562 leukemia
HL-60(TB) leukemia = system: HL-60(TB) leukemia
IGROV1 ovarian = system: IGROV1 ovarian
NCI-H226 lung = system: NCI-H226 lung
LOX IMVI melanoma = system: LOX IMVI melanoma
MCF7 breast = system: MCF7 breast
EKVX NSCLC = system: EKVX NSCLC
SNB-75 CNS = system: SNB-75 CNS
RPMI-8226 leukemia = system: RPMI-8226 leukemia
SK-MEL-2 melanoma = system: SK-MEL-2 melanoma
MALME-3M melanoma = system: MALME-3M melanoma
ACHN renal = system: ACHN renal
SW-620 colon = system: SW-620 colon
T-47D breast = system: T-47D breast
RXF 393 renal = system: RXF 393 renal
NCI/ADR-RES ovarian = system: NCI/ADR-RES ovarian
SNB-19 CNS = system: SNB-19 CNS
CCRF-CEM leukemia = system: CCRF-CEM leukemia
MDA-MB-231 breast = system: MDA-MB-231 breast
NCI-H23 lung = system: NCI-H23 lung
SF-268 CNS = system: SF-268 CNS
HOP-62 NSCLC = system: HOP-62 NSCLC
OVCAR-5 ovarian = system: OVCAR-5 ovarian
786-0 renal = system: 786-0 renal
M14 melanoma = system: M14 melanoma
HOP-92 NSCLC = system: HOP-92 NSCLC
HCT-15 colon = system: HCT-15 colon
A498 renal = system: A498 renal
OVCAR-4 ovarian = system: OVCAR-4 ovarian
SK-OV-3 ovarian = system: SK-OV-3 ovarian
SF-295 CNS = system: SF-295 CNS
OVCAR-3 ovarian = system: OVCAR-3 ovarian
U251 CNS = system: U251 CNS
MDA-MB-435 = system: MDA-MB-435
SK-MEL-5 melanoma = system: SK-MEL-5 melanoma
NCI-H522 lung = system: NCI-H522 lung
SR leukemia = system: SR leukemia
TK-10 renal = system: TK-10 renal
PC-3 prostate = system: PC-3 prostate
SN12C renal = system: SN12C renal
OVCAR-8 ovarian = system: OVCAR-8 ovarian
UO-31 renal = system: UO-31 renal
COLO 205 colon = system: COLO 205 colon
HCC-2998 colon = system: HCC-2998 colon
UACC-257 melanoma = system: UACC-257 melanoma
KM12 colon = system: KM12 colon
A549 NSCLC = system: A549 NSCLC
BT-549 breast = system: BT-549 breast
DU-145 prostate = system: DU-145 prostate

CCn1nc(C#Cc2c(C)ccc3c(Nc4ccc(Cl)cc4)nccc23)c2c(N)ncnc21
38.7 µM: TGI (UACC-257 melanoma)
53.5 µM: TGI (OVCAR-4 ovarian)
10.7 µM: TGI (NCI/ADR-RES ovarian)
inactive: GI50 (HT29 colon) 2.32 µM | GI50 (HCT-116 colon) 2.11 µM | GI50 (CAKI-1 renal) 4.78 µM | GI50 (SK-MEL-28 melanoma) 3.36 µM | GI50 (MOLT-4 leukemia) 4.32 µM | GI50 (UACC-62 melanoma) 1.6 µM | GI50 (NCI-H460 lung) 4.22 µM | GI50 (K-562 leukemia) 2.18 µM | GI50 (HL-60(TB) leukemia) 0.598 µM | GI50 (IGROV1 ovarian) 3.09 µM | GI50 (NCI-H226 lung) 3.29 µM | GI50 (LOX IMVI melanoma) 1.81 µM | GI50 (MCF7 breast) 2.49 µM | GI50 (EKVX NSCLC) 7.4 µM | GI50 (SNB-75 CNS) 3.12 µM | GI50 (RPMI-8226 leukemia) 3.77 µM | GI50 (SK-MEL-2 melanoma) 1.92 µM | GI50 (MALME-3M melanoma) 2.1 µM | GI50 (ACHN renal) 5.31 µM | GI50 (SW-620 colon) 2.99 µM | GI50 (T-47D breast) 5.48 µM | GI50 (RXF 393 renal) 2.63 µM | GI50 (NCI/ADR-RES ovarian) 3.1 µM | GI50 (SNB-19 CNS) 4.93 µM | GI50 (CCRF-CEM leukemia) 3.31 µM | GI50 (MDA-MB-231 breast) 1.89 µM | GI50 (NCI-H23 lung) 3.58 µM | GI50 (SF-268 CNS) 5.36 µM | GI50 (HOP-62 NSCLC) 4.01 µM | GI50 (OVCAR-5 ovarian) 9.19 µM | GI50 (786-0 renal) 3.66 µM | GI50 (M14 melanoma) 2.89 µM | GI50 (HOP-92 NSCLC) 1.79 µM | GI50 (HCT-15 colon) 3.46 µM | GI50 (A498 renal) 2.54 µM | GI50 (OVCAR-4 ovarian) 6.16 µM | GI50 (SK-OV-3 ovarian) 4.38 µM | GI50 (SF-295 CNS) 2.48 µM | GI50 (OVCAR-3 ovarian) 3.46 µM | GI50 (U251 CNS) 4.43 µM | GI50 (MDA-MB-435) 1.08 µM | GI50 (SK-MEL-5 melanoma) 2.14 µM | GI50 (NCI-H522 lung) 2.39 µM | GI50 (SR leukemia) 1.01 µM | GI50 (TK-10 renal) 6.39 µM | GI50 (PC-3 prostate) 3.03 µM | GI50 (SN12C renal) 3.84 µM | GI50 (OVCAR-8 ovarian) 4.35 µM | GI50 (UO-31 renal) 2.09 µM | GI50 (COLO 205 colon) 2.36 µM | GI50 (HCC-2998 colon) 7.57 µM | GI50 (UACC-257 melanoma) 3.54 µM | GI50 (KM12 colon) 3.79 µM | GI50 (A549 NSCLC) 4.58 µM | GI50 (BT-549 breast) 5.27 µM | GI50 (DU-145 prostate) 5.74 µM
27.8 µM: TGI (MDA-MB-231 breast)
7.09 µM: TGI (MALME-3M melanoma)
9.1 µM: TGI (UACC-62 melanoma)
78 µM: TGI (HOP-62 NSCLC)
12.9 µM: TGI (NCI-H226 lung)
8.65 µM: TGI (A498 renal)
11.6 µM: TGI (SF-295 CNS)
6.55 µM: TGI (SK-MEL-5 melanoma)
4.57 µM: TGI (MDA-MB-435)
44 µM: TGI (SNB-75 CNS)
86.9 µM: TGI (NCI-H522 lung)
8.98 µM: TGI (RXF 393 renal)
> 100 µM: TGI (HT29 colon) | TGI (HCT-116 colon) | TGI (CAKI-1 renal) | TGI (SK-MEL-28 melanoma) | TGI (MOLT-4 leukemia) | TGI (NCI-H460 lung) | TGI (K-562 leukemia) | TGI (HL-60(TB) leukemia) | TGI (IGROV1 ovarian) | TGI (LOX IMVI melanoma) | TGI (MCF7 breast) | TGI (EKVX NSCLC) | TGI (RPMI-8226 leukemia) | TGI (ACHN renal) | TGI (SW-620 colon) | TGI (T-47D breast) | TGI (SNB-19 CNS) | TGI (CCRF-CEM leukemia) | TGI (NCI-H23 lung) | TGI (SF-268 CNS) | TGI (OVCAR-5 ovarian) | TGI (786-0 renal) | TGI (M14 melanoma) | TGI (HCT-15 colon) | TGI (SK-OV-3 ovarian) | TGI (OVCAR-3 ovarian) | TGI (U251 CNS) | TGI (SR leukemia) | TGI (TK-10 renal) | TGI (PC-3 prostate) | TGI (SN12C renal) | TGI (OVCAR-8 ovarian) | TGI (UO-31 renal) | TGI (COLO 205 colon) | TGI (HCC-2998 colon) | TGI (KM12 colon) | TGI (A549 NSCLC) | TGI (BT-549 breast) | TGI (DU-145 prostate)
9.06 µM: TGI (HOP-92 NSCLC)
6.53 µM: TGI (SK-MEL-2 melanoma)

— PubChem BioAssay (NCI)
